Consider three compounds from US20230263759A1, “PARENTERAL NUTRITION FORMULATION” (BAXTER INTERNATIONAL INC., priority 2020, published 2023).

For data set [1], the system named is cytokines Il-1β, Il-6, TNF-α, Il-8, Il-10. Put plainly: Cytokine quantification in jejunal and ileal samples. Type of data set: in vivo, pig. As to conditions: compared to standard PN (s-PN). As to the method: Digestive Diseases and Sciences 2002; 47:2049-2055. Jejunal and ileal samples were homogenized in double-distilled water, and the Bradford protein assay (Biorad, Hercules, Calif., USA) was performed on homogenate and plasma samples. Protein (30 μg) from each sample was denatured by boiling, and proteins were separated by size using 12.5% sodium dodecyl sulfate polyacrylamide gel electrophoresis. Separated proteins were transferred to polyvinylidene difluoride membranes (Biorad) using a semidry transfer apparatus (Biorad). Western blot analysis for TNF-alpha, IL-1beta, Il-10 and IL-6 was performed using porcine-specific polyclonal antibodies (Endogen, Woburn, Mass., USA). A mouse anti-pig monoclonal TNF-alpha antibody was used to detect TNF-alpha ([…]) Rabbit anti-pig polyclonal antibodies specific for IL-1beta and IL-6 were used to detect IL-1beta ([…]), Il-10 ([…]) and IL-6 ([…]). Membranes were developed using the Opti-4CN kit (Biorad) and photographed using the FOTO/Analyst Image Analysis System (Fotodyne, Inc., Hart-land, Wisconsin, USA). Densitometry of TNF-alpha, IL-1beta, IL-6, and Il-10 was performed using Collage Image Analysis Software 4.0 (Fotodyne, Inc.). Results are shown in FIG. 15 (Il-6), FIG. 16 (Ill-beta), FIG. 17 (TNF-alpha) and FIG. 18 (Il-10).

Data set [2] can be described thus: Stability of butyrate derivatives in PN compositions (sterilization, storage; GC-FID). As to conditions: for free butyric acid released in the lipid chamber during sterilization: after compounding and sterilization of the bags. The format is physicochemical. The protocol:
The concentration of arginine butyrate can be varied relatively broadly over the disclosed range.
Compositions used are described in Table 4 and Table 5. After compounding of the respective butyrate derivatives into the respective chambers of the bags and following sterilization, free butyric acid was measured in the lipid chamber (for tributyrin and DPBG compositions) and the butyrate content in the amino acid chamber was determined. […] In case of the amino acid chamber, the recovery of butyrate after sterilization corresponds to what was introduced. Accordingly, no deterioration of the salt occurred during or after sterilization. In addition, the stability of the composition over time (12 months, 25° C., 40% RH) was confirmed. The free butyric acid can be quantified by GC-FID, after sample preparation by liquid-liquid extraction of the lipid emulsion or directly from amino acid solution. These methods are known in the art.

In data set [3] the test system is metastatic colorectal cancer patients. As to conditions: aqueous solution, pH 7.7; phase I clinical trial; cited from earlier work.
The test system of data set [4] is sIgA. Put plainly: IgA quantification (sandwich ELISA of intestinal washings). Type of data set: in vivo, pig. The settings on record: 10 mmol/L; compared to standard PN (s-PN). As to the method:
Small intestine probes for IgA level determination were obtained by flushing the small intestine with chilled HBSS (Hank's Balanced Salt Solution). Nasal and bronchoalveolar washings for measurement of respiratory tract IgA levels were obtained by lavage with 1 mL phosphate-buffered saline solution under anesthesia. The washings were stored in a −80° C. freezer until IgA analysis. IgA was measured in small intestinal and respiratory tract washings by sandwich enzyme-linked immunosorbent assay using a polyclonal goat anti-mouse IgA (Sigma) to coat the plate, a purified mouse IgA (Zymed Laboratories, San Francisco, Calif.) as the standard, and a horseradish peroxidase-conjugated goat anti-mouse IgA (Sigma) Results are shown in FIG. 13.
(In general: ELISA stands for enzyme-linked immunosorbent assay.)

In the case of `CCCC(=O)OCC(COC(=O)CCC)OC(=O)CCC` [Tributyrin], in data set [1] (10 mmol/L), the “Ileal Cytokine Concentration (less pro-inflammatory cytokines Il-1β, Il-6, TNF-α)” value is “++ (++ indicates P < 0.05)”; the “Ileal Cytokine Concentration (more anti-inflammatory cytokines Il-8, Il-10)” value is on record as “+”; the “Jejunal Cytokine Concentration (less pro-inflammatory cytokines Il-1β, Il-6, TNF-α)” value is “+++ (+++ indicate P < 0.01)”. Besides, in data set [1] (30 mmol/L), the “Ileal Cytokine Concentration (less pro-inflammatory cytokines Il-1β, Il-6, TNF-α)” value is “++ (++ indicates P < 0.05)”; the “Jejunal Cytokine Concentration (less pro-inflammatory cytokines Il-1β, Il-6, TNF-α)” value is on record as “+++ (+++ indicate P < 0.01)”; the “Jejunal Cytokine Concentration (more anti-inflammatory cytokines Il-8, Il-10)” value is “+”. Also, the “free butyric acid released in the lipid chamber during sterilization” value in data set [2] was “only very limited amounts”.
As to “L-arginine, butanoate (3:4) [Arginine Butyrate]”, in data set [1] (10 mmol/L), the “Ileal Cytokine Concentration (less pro-inflammatory cytokines Il-1β, Il-6, TNF-α)” value is “+++ (+++ indicate P < 0.01)”; the “Ileal Cytokine Concentration (more anti-inflammatory cytokines Il-8, Il-10)” value was “+^4”; the “Jejunal Cytokine Concentration (less pro-inflammatory cytokines Il-1β, Il-6, TNF-α)” value is on record as “+++ (+++ indicate P < 0.01)”; the “Jejunal Cytokine Concentration (more anti-inflammatory cytokines Il-8, Il-10)” value is on record as “++ (++ indicates P < 0.05)”. The tolerated dose in data set [3] is given as 3 g/kg/day. The “Jejunal sIgA Concentration” value in data set [4] is “+++^3 (+++ indicate P < 0.01)”. The “shelf-life over which stable in the amino acid formulation” value in data set [2] (25° C. and 40% relative humidity (RH), also stable during production, sterilization) is reported as “at least 12 months”.
On to `CCCCCCCCCCCCCCCC(=O)OCC(COC(=O)CCC)OC(=O)CCCCCCCCCCCCCCC` (stereo not drawn) [DPBG, 1,2-Dipalmitoyl 3-butyryl glycerol], for which the “free butyric acid released in the lipid chamber during sterilization” value in data set [2] was “only very limited amounts”.
